# Experimental data: patent publication US20060014750A1, “Pharmaceutical compositions for the treatment of CNS and other disorders” (Pfizer Inc, priority 2001, published 2006)
# Structures can show the parent of a compound that is named as a salt.
row,SMILES,melting point
1,O=C(Nc1ccc(Br)cc1)N1CCN2CCC1CC2 (as salt: HCl),228 to 231 °C
2,O=C(OCc1ccccc1)N1CCN2CCC1CC2 (as salt: hydrochloride),235.6 °C
3,COC(=O)N1CCN2CCC1CC2 (as salt: hydrochloride),198.7 °C
4,CCOC(=O)N1CCN2CCC1CC2 (as salt: hydrochloride),207.7 °C
5,N#Cc1ccc(OC(=O)N2CCN3CCC2CC3)cc1 (as salt: hydrochloride),289.8 °C
6,O=C(Oc1ccc(OCc2ccccc2)cc1)N1CCN2CCC1CC2 (as salt: hydrochloride),278.5 °C
7,O=C(Oc1ccc(Oc2ccccc2)cc1)N1CCN2CCC1CC2 (as salt: hydrochloride),238 °C
8,N#Cc1ccc(-c2ccc(OC(=O)N3CCN4CCC3CC4)cc2)cc1 (as salt: hydrochloride),> 300 °C
9,O=C(Oc1ccc(-c2ccc(Br)cc2)cc1)N1CCN2CCC1CC2 (as salt: hydrochloride),> 300 °C
10,O=C(Oc1ccc(-n2cncn2)cc1)N1CCN2CCC1CC2 (as salt: hydrochloride),253.1 °C
11,O=C(Oc1ccc(F)cc1)N1CCN2CCC1CC2 (as salt: hydrochloride),276.8 °C
12,CC(=O)N1CCN(c2ccc(OC(=O)N3CCN4CCC3CC4)cc2)CC1 (as salt: hydrochloride),166.6 °C
13,O=C(Oc1ccccc1-c1nc2ccccc2s1)N1CCN2CCC1CC2 (as salt: hydrochloride),247.6 °C
14,O=C(Oc1cccc(F)c1)N1CCN2CCC1CC2 (as salt: hydrochloride),228.2 °C
15,O=C(Oc1cccc(Br)c1)N1CCN2CCC1CC2 (as salt: hydrochloride),224.5 °C
16,COc1cccc(OC(=O)N2CCN3CCC2CC3)c1 (as salt: hydrochloride),204.3 °C
17,O=C(Oc1ccc([N+](=O)[O-])cc1)N1CCN2CCC1CC2 (as salt: hydrochloride),267.5 °C
18,O=C(Oc1ccccc1Cc1ccccc1)N1CCN2CCC1CC2 (as salt: hydrochloride),214 °C
19,O=C(c1ccccc1)c1cccc(OC(=O)N2CCN3CCC2CC3)c1 (as salt: hydrochloride),241.7 °C
20,O=C(Oc1cccc([N+](=O)[O-])c1)N1CCN2CCC1CC2 (as salt: hydrochloride),205.1 °C
21,O=C(Oc1ccccc1[N+](=O)[O-])N1CCN2CCC1CC2 (as salt: hydrochloride),260.4 °C
22,Cc1cc(OC(=O)N2CCN3CCC2CC3)ccc1Br (as salt: hydrochloride),212.5 °C
23,O=C(Oc1ccc(Cl)c(Cl)c1)N1CCN2CCC1CC2 (as salt: hydrochloride),260.2 °C

# The remaining lines, values ahead:
row,melting point,SMILES
1,254.8 °C,O=C(Oc1ccccc1)N1CCN2CCC1CC2
2,174.2 °C,O=C(Oc1ccc2cc(Br)ccc2c1)N1CCN2CCC1CC2
3,272.2 °C,S=C(Oc1ccccc1)N1CCN2CCC1CC2 (as salt: hydrochloride)
4,237.4 °C,COC(=O)c1ccc(OC(=O)N2CCN3CCC2CC3)cc1 (as salt: hydrochloride)
5,266.5 °C,CC(C)COC(=O)N1CCN2CCC1CC2 (as salt: hydrochloride)
6,217.5 °C,CCCCCCCCOC(=O)N1CCN2CCC1CC2 (as salt: hydrochloride)
7,242 °C,CCCOC(=O)N1CCN2CCC1CC2 (as salt: hydrochloride)
8,294.1 °C,O=C(Oc1ccc(C2CCCCC2)cc1)N1CCN2CCC1CC2 (as salt: hydrochloride)
9,235.2 °C,CSc1ccc(OC(=O)N2CCN3CCC2CC3)cc1 (as salt: hydrochloride)
10,168.7 °C,O=C(Oc1ccc(C2CCc3ccccc32)cc1)N1CCN2CCC1CC2 (stereo not shown) (as salt: hydrochloride)
11,280.2 °C,O=C(Oc1ccc(I)cc1)N1CCN2CCC1CC2 (as salt: hydrochloride)
12,221.8 °C,O=C(Oc1ccc(Cc2ccccc2)cc1)N1CCN2CCC1CC2 (as salt: hydrochloride)
13,289.7 °C,CC(C)(C)c1ccc(OC(=O)N2CCN3CCC2CC3)cc1 (as salt: hydrochloride)
14,269.7 °C,COc1ccc(OC(=O)N2CCN3CCC2CC3)cc1 (as salt: hydrochloride)
15,> 300 °C,O=C(Oc1ccc(-n2ccnc2)cc1)N1CCN2CCC1CC2 (as salt: hydrochloride)
16,260.7 °C,O=C(Oc1ccc(C(F)(F)F)cc1)N1CCN2CCC1CC2 (as salt: hydrochloride)

row,melting point,SMILES
1,267.2 °C,O=C(Oc1ccccc1Br)N1CCN2CCC1CC2 (as salt: hydrochloride)
2,251.2 °C,O=C(Oc1ccccc1Cl)N1CCN2CCC1CC2 (as salt: hydrochloride)
3,254 °C,O=C(Oc1ccccc1I)N1CCN2CCC1CC2 (as salt: hydrochloride)
4,228.7 °C,O=C(Oc1ccccc1C(F)(F)F)N1CCN2CCC1CC2 (as salt: hydrochloride)
5,259.9 °C,O=C(Oc1ccccc1-c1nc2ccccc2o1)N1CCN2CCC1CC2 (as salt: hydrochloride)
6,249.2 °C,Cc1cccc(OC(=O)N2CCN3CCC2CC3)c1 (as salt: hydrochloride)
7,283.4 °C,CC(C)(C)c1cccc(OC(=O)N2CCN3CCC2CC3)c1 (as salt: hydrochloride)
8,229.3 °C,O=C(Oc1cccc(C(F)(F)F)c1)N1CCN2CCC1CC2 (as salt: hydrochloride)
9,243.8 °C,O=C(Oc1cccc(I)c1)N1CCN2CCC1CC2 (as salt: hydrochloride)
10,204.8 °C,O=C(Oc1cccc(Oc2ccccc2)c1)N1CCN2CCC1CC2 (as salt: hydrochloride)
11,239.5 °C,Cc1cc(OC(=O)N2CCN3CCC2CC3)cc(C)c1Br (as salt: hydrochloride)
12,234.7 °C,O=C(Oc1ccc(Br)c(Cl)c1)N1CCN2CCC1CC2 (as salt: hydrochloride)
13,246 °C,Cc1ccc(OC(=O)N2CCN3CCC2CC3)cc1C (as salt: hydrochloride)
14,210.2 °C,O=C(Oc1cccc(-c2cccnc2)c1)N1CCN2CCC1CC2 (as salt: hydrochloride)
15,255.5 °C,O=C(Oc1ccc2ccccc2c1)N1CCN2CCC1CC2 (as salt: hydrochloride)
16,257.5 °C,O=C(Oc1ccc(Cl)cc1)N1CCN2CCC1CC2 (as salt: hydrochloride)
